The values below come from patent US6069176A, “Phenylethanolamine compounds useful as β 3 agonists, process for producing the same, and intermediates in the production of the same” (Mitsubishi-Tokyo Pharmaceuticals, Inc., priority 1995, dated 2000).

One data set has as its target β2 adrenergic receptor (Cavia porcellus, UniProt Q8K4Z4). Briefly: [Test 3] relaxing effect on isolated guinea pig tracheal muscle (β2 adrenergic receptor stimulating effect). The class given is cell-based.
The target in data set [1] is T1, β3 adrenergic receptor (Rattus norvegicus, UniProt P26255). Briefly: [Test 1] spontaneous locomotion-suppressing effect on isolated rat colon (β3 adrenergic receptor stimulating effect). It is filed as cell-based.
T1 sequence (P26255 whole entry): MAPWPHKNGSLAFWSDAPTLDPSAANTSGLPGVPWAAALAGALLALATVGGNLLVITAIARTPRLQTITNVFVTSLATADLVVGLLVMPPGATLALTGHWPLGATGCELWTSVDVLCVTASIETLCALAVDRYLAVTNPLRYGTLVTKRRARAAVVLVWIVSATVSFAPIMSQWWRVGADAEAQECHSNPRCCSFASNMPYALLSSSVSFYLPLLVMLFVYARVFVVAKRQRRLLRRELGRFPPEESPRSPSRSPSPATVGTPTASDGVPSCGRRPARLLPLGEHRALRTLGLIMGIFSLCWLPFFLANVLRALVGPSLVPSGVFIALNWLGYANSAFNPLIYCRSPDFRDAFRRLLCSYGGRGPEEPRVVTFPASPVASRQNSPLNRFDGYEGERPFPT
Another data set relates to bladder detrusor muscle. The note with it: The autonomic nervous system, 26, 380-387 (1989); cited from earlier work.
Data set [2] has as its system isolated rat bladder detrusor muscle. Briefly: [Test 5] relaxing effect on isolated rat bladder detrusor muscle (smooth muscle). The class given is cell-based. The note with it: read-out: EC50 (relaxing effect on isolated rat bladder detrusor muscle). The procedure:
[Test 5] Examination of relaxing effect on isolated rat bladder detrusor muscle (smooth muscle)
Rat bladders were isolated by a common method for preparation of strips. The isolated bladder strips were mounted in an organ bath filled with Krebs' solution kept at 37° C., under mixed gas aeration (95% O2 +5% CO2) and subjected to an initial tension of 1.0 g. Each test compound was cumulatively added to the organ bath at intervals of 10 minutes.

For data set [3] the following is noted: treatment for urinary incontinence; cited from earlier work.
The target of a further data set is T2, β1 adrenergic receptor (Cavia porcellus, UniProt H0W3H1).
T2 construct: functional heart beat increase (chronotropy)
T2 sequence (H0W3H1 1-470): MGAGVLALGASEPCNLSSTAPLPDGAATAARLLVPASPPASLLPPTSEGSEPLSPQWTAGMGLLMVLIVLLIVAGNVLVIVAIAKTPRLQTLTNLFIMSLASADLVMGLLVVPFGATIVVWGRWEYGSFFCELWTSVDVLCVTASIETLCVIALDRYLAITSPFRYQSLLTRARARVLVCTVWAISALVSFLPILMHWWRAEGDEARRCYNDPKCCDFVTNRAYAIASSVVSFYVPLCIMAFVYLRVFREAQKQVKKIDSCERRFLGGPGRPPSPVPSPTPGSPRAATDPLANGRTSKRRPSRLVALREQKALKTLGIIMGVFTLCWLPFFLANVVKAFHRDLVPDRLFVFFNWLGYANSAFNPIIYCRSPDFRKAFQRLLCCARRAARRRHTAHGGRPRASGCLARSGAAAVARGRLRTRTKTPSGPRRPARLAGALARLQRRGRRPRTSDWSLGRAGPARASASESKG
Briefly: [Test 4] heart beat increasing effect on isolated guinea pig right atrium (β1 adrenergic receptor stimulating effect). The note with it: read-out: EC10 (heart beat increasing effect on isolated guinea pig right atrium). The class given is cell-based.

Data set [4] concerns rat confinement stress-induced diarrhea models. Briefly: [Test 7] suppression of diarrhea in rat confinement stress-induced diarrhea models. The note with it: po, 1.0 mg/kg; feces observed over 3 hours. The class given is in vivo, rat (male Wistar rats).
Protocol: Examination of suppressing effect on diarrhea using rat confinement stress-induced diarrhea models
The nature of the feces excreted over a total of 3 hours was observed every 30 minutes, and the results were recorded as the diarrhea coefficient (0: no fecal excretion, 1: solid feces, 2: soft feces, 3: mild diarrhea, 4: muddy feces). Here, cases with a diarrhea coefficient score of 3 or higher, i.e. from feces which left a stain on filter paper to muddy feces, were judged as diarrhea, and the rate of diarrhea suppression was calculated (Table 6).
The subject of data set [5] is rat colon. Put plainly: [Test 6] suppressing effect on spontaneous locomotion of anesthetized rat colon (in vivo test). Set-up: species or system rat (male Wistar rats). The note with it: iv, 10 min, read-out: ED50 (suppressing effect on spontaneous locomotion of anesthetized rat colon). The procedure: [Test 6] […] The lead wire of the force transducer was connected to a multipurpose preamp through a bridge box (FB-01, Star Medical), and the spontaneous locomotion of the colon was recorded with a Thermal Array Recorder (Nihon Koden), upon which the total degrees of contraction over 10 minutes were compared before and after bolus administration.

Another data set has as its system β3 adrenergic receptors. The note with it: prior art; cited from earlier work.
For data set [6], the system named is rat colon. The note with it: Drugs of the Future, 18, 529-549 (1993); cited from earlier work.
The conditions of data set [7]: Drugs of the Future, 18, 529-549 (1993); cited from earlier work.
Data set [8] has as its target T1, β3 adrenergic receptor. Put plainly: cell-based. Further details: Isolated rat fat was used to examine the effect on fat decomposition; from tissue; host or cells: adipocytes from fat around the testicles of male SD rats; species or system rat (male SD rats). The note with it: rat adipocyte suspension, 30 minutes at 30° C., glycerol content; read-out: lypolytic activity (EC50 value).

The subject of the next data set is rat bladder. Briefly: [Test 9] bladder contraction induced by electrical stimulation of peripheral end of pelvic nerve in anesthetized rat. The class given is in vivo. The note with it: through femoral vein; 20 Hz, 0.3 msec, 5V; urethane and α-chloralose anesthesia. The source says: [Test 9] Effect on bladder contraction induced by electrical stimulation of peripheral end of pelvic nerve in anesthetized rat
After median incision in the abdomen of rats anesthetized with urethane and α-chloralose, the ureters on both sides were ligated and cut on the kidney side, and pledgets were placed on the cut sections to absorb the urine. Next, the hypogastric nerves on both sides were transected and the base of the penis were ligated at close the urethra. A small hole was opened in the top of bladder and, after inserting one end of a polyethylene tube, ligated. The other end of the polyethylene tube was connected to a pressure transducer (TP 400, Nihon Koden) to measure the intravesical pressure.
Physiological saline was injected into the bladder to obtain intravesical pressure at a 100 mm H2 O. The change of the intervesical pressure was recorded with a heat recorder (WT 685G, Nihon Koden). After ablating the left pelvic nerves from the fatty tissue around the bladder and cutting the central section, a platinum electrode was implanted at the peripheral end of the pelvic nerves. An electrical stimulation apparatus (SEN-3301, Nihon Koden) was used for generating a rectangular wave electrical stimulation (20 Hz, 0.3 msec, 5V) for 5 seconds every 5 minutes. […]

The mark [9] stands for this setting: 10% augmentation of heart beats, 37° C.

pEC50: −log10 of the molar value. Structures can show the parent of a compound that is named as a salt. Where two headings read alike, the source gives them in different places.

Chain of β2 adrenergic receptor (Q8K4Z4 whole entry): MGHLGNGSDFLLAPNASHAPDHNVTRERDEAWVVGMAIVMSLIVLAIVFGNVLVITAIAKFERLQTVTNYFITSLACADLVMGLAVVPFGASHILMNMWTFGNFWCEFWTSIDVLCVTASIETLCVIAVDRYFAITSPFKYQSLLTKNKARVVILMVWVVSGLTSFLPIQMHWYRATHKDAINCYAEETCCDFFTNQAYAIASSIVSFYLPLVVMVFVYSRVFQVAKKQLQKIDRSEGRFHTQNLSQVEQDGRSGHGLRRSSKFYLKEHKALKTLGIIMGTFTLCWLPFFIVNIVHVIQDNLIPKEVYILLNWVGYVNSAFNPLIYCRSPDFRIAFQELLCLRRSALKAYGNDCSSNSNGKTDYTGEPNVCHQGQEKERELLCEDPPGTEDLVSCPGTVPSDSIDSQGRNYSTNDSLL
Protocol for β1 adrenergic receptor: [Test 4] β1 adrenergic receptor stimulating effect
Isolated guinea pig right atrium strips were used to examine the heart beat increasing effect. Guinea pig right atriums were isolated by a common method, mounted in an organ bath filled with a nutrient medium (Krebs' buffer, 0.03 mM ascorbic acid, 0.03 mM EDTA, 10 M M phenanthramine) maintained at 37° C., gassed with 95% O2 and 5% CO2, and maintained at an initial tension of 0.5g, after which the cardiac contractile force and heart beats were recorded with a recorder.

What is called pEC50 is −log10 of the EC50, conventionally taken in molar units. `CCOC(=O)COc1ccc(C2CCCC(NC[C@H](O)c3cccc(Cl)c3)C2)cc1` (stereo partly drawn) [Example 28, (1R)-1-(3-Chlorophenyl)-2-[3-(4-ethoxycarbonylmethoxyphenyl)cyclohexylamino]ethanol hydrochloride]: the pEC50 on β2 adrenergic receptor was 5.96; on β3 adrenergic receptor [1], 7.82.

Regarding `CC(C)(C)NCC(O)c1cc(Cl)c(N)c(Cl)c1` (stereo not shown) [Clenbuterol], the “relaxing effect on the bladder detrusor muscle” value with bladder detrusor muscle is on record as “relaxing effect on the bladder detrusor muscle”. The pEC50 in [2] is 7.51. Also, in data set [3], the side-effects result was “side-effects including finger tremor and palpitation”.

A word on the EC10: it is the concentration at which the effect reaches the 10% level. As to `O=C([O-])COc1ccccc1C1CCCC(NC[C@H](O)c2cccc(Cl)c2)C1.[Na+]` (stereo partly shown), the EC10 at β1 adrenergic receptor was over 30000 nM. The results for the pEC50 at β2 adrenergic receptor and on β3 adrenergic receptor [1] were 6.05 and 8.48, respectively. The compound further came in with a diarrhea suppression rate in [4] of 30%.

On to `O=C(O)COc1ccc(C2CCCC(NC[C@H](O)c3cccc(Cl)c3)C2)cc1` (single isomer, unassigned) [Example 32, acetate], for which the EC10 at β1 adrenergic receptor (setting [9]) was over 30000 nM. For the same compound, the pEC50 is 4.82 on β2 adrenergic receptor and 7.92 at β3 adrenergic receptor [1].

With `CC(C)NCC(O)c1ccc(O)c(O)c1` (stereo not shown) [Isoproterenol], the pEC50 in data set [2] was 8.00.

A word on the ED50: it is the dose at which the effect has come halfway, by size or by number of responders. Regarding `CCOC(=O)COc1cccc(C2CCCC(NC[C@H](O)c3cccc(Cl)c3)C2)c1` (stereo partly drawn) [Example 11, (1R)-1-(3-Chlorophenyl)-2-[3-(3-ethoxycarbonylmethoxyphenyl)cyclohexylamino]ethanol hydrochloride], at β1 adrenergic receptor (setting [9]), the EC10 was over 30000 nM. For the same compound, in the data set with rat colon [5], the ED50 amounted to 0.23 µg/kg. In addition, the pEC50 on β2 adrenergic receptor was 6.10; on β3 adrenergic receptor [1] it was 8.43.

As for `CCOC(=O)COc1ccc2c(c1)CC(NCC(O)c1cccc(Cl)c1)CC2.Cl` (racemic) [SR 58611A, (RS)-N-(7-ethoxycarbonylmethoxy-1,2,3,4-tetrahydronaphth-2-yl)-2-(3-chlorophenyl)-2-hydroxyethanamine hydrochloride, reference compound], the EC10 at β1 adrenergic receptor (setting [9]) was over 30000 nM. The ED50 in the data set on rat colon [5] came out at 12 µg/kg. Also, the pEC50 at β2 adrenergic receptor is 4.85; on β3 adrenergic receptor [1], 8.11. In addition, in the data set with β3 adrenergic receptors, the “selective action on β3 adrenergic receptors” value is reported as “act selectively on β3 adrenergic receptors”. In addition, in the data set with rat colon [6], the “suppressing effect on spontaneous locomotion of rat colon” value is given as “potent suppressing effect on spontaneous locomotion of rat colon”. Further, the diarrhea suppression rate in data set [4] worked out at 20%.

As to `CCOC(=O)COc1ccc(C2CCC(NC[C@H](O)c3cccc(Cl)c3)C2)cc1` (stereo partly drawn) [Example 69, (2R)-Ethyl (4-[3-[2-(3-chlorophenyl)-2-hydroxyethylamino]cyclopentyl]phenoxy)acetate], at β1 adrenergic receptor (setting [9]), the EC10 was over 30000 nM. The figures for the pEC50 at β2 adrenergic receptor and at β3 adrenergic receptor [1] were 6.09 and 7.05, respectively.

With `CCOC(=O)C1(C(=O)OCC)Oc2ccc(C3CCCC(NC[C@H](O)c4cccc(Cl)c4)C3)cc2O1` (stereo partly drawn) [Example 60, (2R)-Diethyl 5-[3-[2-(3-chlorophenyl)-2-hydroxyethylamino]cyclohexyl]benzo-1,3-dioxol-2,2-dicarboxylate], the pEC50 on β3 adrenergic receptor [1] is 7.38.

As for `CCOC(=O)COc1ccccc1C1CCCC(NC[C@H](O)c2cccc(Cl)c2)C1` (stereo partly drawn) [Example 43, (1R)-(3-Chlorophenyl)-2-[3-(2-ethoxycarbonylmethoxyphenyl)cyclohexylamino]ethanol hydrochloride], the EC10 on β1 adrenergic receptor (setting [9]) was over 30000 nM. The results for the pEC50 on β2 adrenergic receptor and on β3 adrenergic receptor [1] were 6.09 and 8.42, respectively. This compound also returned a diarrhea suppression rate in [4] of 50%.

With `COC(=O)COc1ccc(C[C@@H](C)NC[C@H](O)c2cccc(Cl)c2)cc1` (relative stereo) [BRL35135, (R*R*)-(±)-[4-[2-[2-(3-chlorophenyl)-2-hydroxyethylamino]propyl]phenoxy]acetic acid methyl ester hydrobromide salt], the “selective action on β3 adrenergic receptors” value in the data set on β3 adrenergic receptors is listed as “act selectively on β3 adrenergic receptors”. Moreover, the “lypolytic and hypoglycemic effect” value in data set [7] was “lypolytic and hypoglycemic effect”.

Turning to `O=C([O-])COc1cccc(C2CCCC(NC[C@H](O)c3cccc(Cl)c3)C2)c1.[Na+]` (stereo partly shown), the EC10 at β1 adrenergic receptor was over 30000 nM. In the data set with rat colon [5], the ED50 is 0.27 µg/kg. Besides, the pEC50 at β2 adrenergic receptor was 5.38; on β3 adrenergic receptor [8] it was 7.68; at β3 adrenergic receptor [1], 8.85; in data set [2] it was 7.80. Further, in the data set with rat bladder, the “suppression of bladder contraction (FIG. 2)” value is “suppressed bladder contraction at a lower dose than Clenbuterol hydrochloride”. In addition, in [4], the diarrhea suppression rate is reported as 60%.

As for `CCOC(=O)COc1cccc(C2CCCC(NC[C@H](O)c3cccc(Cl)c3)C2)c1` (stereo partly drawn) [Example 14, (1R)-1-(3-Chlorophenyl)-2-[3-(3-ethoxycarbonylmethoxyphenyl)cyclohexylamino]ethanol], the diarrhea suppression rate in data set [4] came to 50%.
